# In patent US20250235499A1, “ANTI-OVARIAN CANCER PHARMACEUTICAL COMPOSITION AND ACTION TARGET THEREOF” (Zhejiang Chinese Medical University, priority 2024, published 2025):
# Key:
# [1] = test system: MCM2 protein in Hey cells; test: MCM2 protein expression in ovarian cancer cell after intervention; assay type: cell-based, human; details: 24 hours, 100 μmol/L CA, 6.25 μmol/L BDMC, compared to the Control group
# Procedure: (§1) The effect of intervention on MCM2 protein expression in the SKOV3 and Hey ovarian cancer cells for 24 hours in the CA group using 100 μmol/L CA, the BDMC group using 6.25 μmol/L BDMC, and the CA+BDMC group using 100 μmol/L CA+6.25 μmol/L BDMC in Example 1 was shown in FIGS. 16A-16B, wherein A represented the expression of MCM2 protein in SKOV3 cells; B represented the expression of MCM2 protein in Hey cells compared to the Control group, #P<0.05, ##P<0.01; and compared with the CA+BDMC group, &P<0.05, &&P<0.01.
# [2] = test system: MCM2 protein in SKOV3 cells; test: as above; assay type: cell-based, human; details: SKOV3, 24 hours, 100 μmol/L CA, 6.25 μmol/L BDMC; compared to the Control group
# Procedure: as §1
# [3] = test system: MCM2, CDK4, Cyclin D1, P21; test: Immunohistochemical assay of tumor body cell cycle related proteins in tumor bearing nude mice; assay type: in vivo, BALB/c nude mice; details: nude mouse tumor body, compared to the Control group
# Procedure: The immunohistochemistry of tumor body cyclin in tumor bearing nude mice after intervention with DDP, CA, BDMC, and combined administration was shown in FIG. 28. The image was magnified by 400×, with a scale of 10 μM. The expression of MCM2, CDK4, and Cyclin D1 proteins in the CA group, BDMC group, and CA+BDMC group decreased compared to the Control group; and the expression of MCM2, CDK4, and Cyclin D1 proteins in the CA+BDMC group decreased compared to the CA group and BDMC group. The expression of P21 protein in the CA group, BDMC group, and CA+BDMC group increased compared to the Control group; and the expression of P21 protein in the CA+BDMC group increased compared to the CA group and BDMC group.
# [4] = test system: Hey ovarian cancer cells; test: Cell migration and invasion (small chamber) with MCM2 knockdown or overexpression; assay type: cell-based, human
# Procedure: (§2) The night before collecting cells, small chambers were placed in a 24 well plate. A matrix gel was taken out from the −20° C. refrigerator and placed to melt naturally on ice. The thawed matrix gel was mixed with serum-free medium in a ratio of 1:5, and 100 μL of the mixture was added to each chamber. After preparation, the 24 well plate was placed in the incubator overnight. The next day, SKOV3 and Hey ovarian cancer cells in logarithmic growth phase were knocked down with MCM2 (Control group, sh-NC group, sh-MCM2 group) and overexpressed with MCM2 (Control group, OE-NC group, OE-MCM2 group). The original culture medium was discarded, washed with PBS buffer, and digested with 0.1% trypsin. A corresponding serum-free culture medium was added to prepare a cell suspension. Cells were counted using a hemocytometer and the cell concentration was quantified at 5×10^4 cells/mL. The 24 well plate was taken out and placed in a small chamber for a migration experiment and the 24 well plate with the matrix gel for an invasion experiment. 200 μL of a corresponding cell suspension was added to an upper chamber, and 700 μL of a corresponding culture medium containing 10% FBS was added to a lower chamber. The 24 well plate was further placed in an incubator for cultivation. The 24 well plate for the migration experiment was cultured for 24 hours before being taken out, while the 24 well plate for the invasion experiment was cultured for 48 hours before being taken out. The culture medium in the small chamber was poured out. The inside of the small chamber was cleaned with a cotton swab, and washed twice with the PBS buffer. The small chamber was fixed in 4% paraformaldehyde for 30 minutes, and stained in 1% crystal violet solution for 10 minutes after fixation. The small chamber was taken out, washed twice with the PBS buffer, dried with an absorbent paper, observed and counted under a microscope. The impact of CA, BDMC, and combined administration intervention on cell migration after knocking down MCM2 in SKOV3 and Hey ovarian cancer cells was shown in FIGS. 19A-19D. The scale in FIGS. 19A-19D was 10 μM; A represented the migration of SKOV3 cells; B represented the migration of Hey cells; C represented the invasion of SKOV3 cells; and D represented the invasion of Hey cells. Compared with the sh-NC group, ##P<0.01; compared with the sh-NC+CA+BDMC group, &&P<0.01; and ** P<0.01. The impact of CA, BDMC, and combined administration intervention on cell migration after overexpression of MCM2 on the SKOV3 and Hey ovarian cancer cells was shown in FIGS. 20A-20D. The scale in FIGS. 20A-20D was 10 μM, A represented the migration of SKOV3 cells; B represented the migration of Hey cells; C represented the invasion of SKOV3 cells; and D represented the invasion of Hey cells. Compared with the OE-NC group, ##P<0.01; compared with the OE-NC+CA+BDMC group, &&P<0.01; and compared with the OE-MCM2+CA+BDMC group, ΔP<0.05, ΔΔP<0.01; and ** P<0.01.
# [5] = test system: SKOV3 ovarian cancer cells; test: as above; assay type: cell-based, human
# Procedure: as §2
# [6] = test system: E-cadherin, N-cadherin, Vimentin in Hey cells; test: Expression of EMT related proteins in cells; assay type: cell-based, human
# [7] = test system: MCM2, CDK4, Cyclin D1, P21; test: Western Blot of tumor body cyclin in tumor bearing nude mice; assay type: in vivo, BALB/c nude mice; details: nude mouse tumor body, compared to the Control group
# From the text: The expression of nude mice tumor body cyclin and EMT related proteins in tumor bearing nude mice after intervention with DDP, CA, BDMC, and combined administration was shown in FIG. 29. In the figure, 1 represented the Control group; 2 represented the DDP group; 3 represented the CA group; 4 represented the BDMC group; and 5 represented the CA+BDMC group.
# [8] = Hey OE-MCM2 cells (MCM2 overexpression), vs OE-MCM2 group
# [9] = Hey OE-NC cells (empty vector), vs OE-NC group
# [10] = Hey sh-MCM2 cells (MCM2 knockdown), vs sh-MCM2 group
# [11] = Hey sh-NC cells (empty vector), vs sh-NC group
# [12] = SKOV3 OE-MCM2 cells (MCM2 overexpression), vs OE-MCM2 group
# [13] = SKOV3 OE-NC cells (empty vector), vs OE-NC group
# [14] = SKOV3 sh-MCM2 cells (MCM2 knockdown), vs sh-MCM2 group
# [15] = SKOV3 sh-NC cells (empty vector), vs sh-NC group
smiles,measurement,setting,value
"COc1ccc(-c2coc3cc(O)ccc3c2=O)cc1O [CA, calycosin]",expression of the MCM2 protein,[1],significantly decreased
same,expression of the MCM2 protein,[2],significantly decreased
same,expression of CDK4 protein (immunohistochemistry),[3],decreased
same,expression of Cyclin D1 protein (immunohistochemistry),[3],decreased
same,expression of MCM2 protein (immunohistochemistry),[3],decreased
same,expression of P21 protein (immunohistochemistry),[3],increased
same,number of the invading cells,[4]; [8],no significant change
same,number of the migrating cells,[4]; [8],no significant change
same,number of the invading cells,[4]; [9],significantly reduced
same,number of the migrating cells,[4]; [9],significantly reduced
same,number of the invading cells,[4]; [10],no significant change
same,number of the migrating cells,[4]; [10],no significant change
same,number of the invading cells,[4]; [11],significantly reduced
same,number of the migrating cells,[4]; [11],significantly reduced
same,number of the invading cells,[5]; [12],no significant change
same,number of the migrating cells,[5]; [12],no significant change
same,number of the invading cells,[5]; [13],significantly reduced
same,number of the migrating cells,[5]; [13],significantly reduced
same,number of the invading cells,[5]; [14],no significant change
same,number of the migrating cells,[5]; [14],no significant change
same,number of the invading cells,[5]; [15],significantly reduced
same,number of the migrating cells,[5]; [15],significantly reduced
same,expression of E-cadherin,[6]; [8],no significant change
same,expression of N-cadherin,[6]; [8],no significant change
same,expression of Vimentin,[6]; [8],no significant change
same,expression of E-cadherin,[6]; [9],significantly increased
same,expression of N-cadherin,[6]; [9],significantly decreased
same,expression of Vimentin,[6]; [9],significantly decreased
same,expression of E-cadherin,[6]; [10],no significant change
same,expression of N-cadherin,[6]; [10],no significant change
same,expression of Vimentin,[6]; [10],no significant change
same,expression of E-cadherin,[6]; [11],significantly increased
same,expression of N-cadherin,[6]; [11],significantly decreased
same,expression of Vimentin,[6]; [11],significantly decreased
same,expression of CDK4 protein (Western Blot),[7],significantly decreased
same,expression of Cyclin D1 protein (Western Blot),[7],significantly decreased
same,expression of MCM2 protein (Western Blot),[7],significantly decreased
same,expression of P21 protein (Western Blot),[7],significantly increased
